According to patent US7425579B2, “Methods for inhibiting activity of polyamine transporters” (Universite Laval, priority 1998, dated 2008):

Key:
CHO-MG cells = assay: Potentiation of DFMO-induced cytostasis in polyamine transport-deficient CHO-MG cells; type: cell-based, Chinese hamster; settings: 2 mM DFMO; 4 d; polyamine transport mutant
Method: FIGS. 9A and 9B are graphs showing that potentiation of DFMO-induced cytostasis by a compound used in a method according to a preferred embodiment of the invention requires a functional polyamine transport system. In particular, CHO-TOR cells (A) and their polyamine transport-deficient mutant subline CHO-MG (B) were grown in medium containing 1 mM aminoguanidine and the indicated concentration of spermidine, in the presence of 2 mM DFMO (●), BNSD-X (□), DFMO+BNSD-X (▪), or vehicle only (∘). Cells were harvested after 4 d for determination of total DNA/well. Data are presented as the mean±SD for triplicate cultures from one representative experiment;
To determine the ability of polyamine transport antagonists to potentiate DFMO-induced inhibition of cell proliferation in the presence of exogenous polyamines, cells were grown for the indicated period in growth medium supplemented with 1 mM aminoguanidine, and either DFMO (1 to 5 mM), the indicated transport inhibitor (50 or 100 μM), or the combination thereof, as well as increasing concentrations of spermidine (0.1 to 300 μM). Fresh medium was added every other day, and cell mass was determined at various time points during the period of exponential growth, or at the end of the experimental period. […]

[1] = Plasma level of BNSD-X after gavage; type: in vivo, mice; settings: solid BNSD-X, 1 g/kg body weight by gavage
mice = assay: Acute and subacute oral toxicity of BNSD-X by gavage; type: in vivo
Method: To assess the relative toxicity of BNSD-X, the drug was administered as a 1% (w/v) solution in the drinking water to CD-1 mice with ad libitum access for 14 d. Mice were weighed every other day during the experiment. At the end of the experiment, mice were sacrificed, and organs (kidneys, liver, and spleen) were immediately weighed. Organs were then saved in 10% formalin for morphological examination by an in-house pathologist at the CHUL Research Center (Quebec City, Canada). Acute and subacute oral toxicity of BNSD-X was also separately determined by administering the drug by gavage (0-5 g/kg body weight).
Orally administered polyamines (at ≧0.6 g/kg/day) can have deleterious neurological effects and induce lesions on internal organs (Til et al. (1997) Food Chem Toxicol. 35:337-348.). In order to assess the acute and subacute toxicity of BNSD-X as an orally delivered hexaamine, the effects of gavage with solid BNSD-X pellets was first examined in mice.

Structure (SMILES): NCCCN(CCCN)Cc1ccc(CN(CCCN)CCCN)cc1 [28a, N,N,N′,N′-tetrakis-(3-aminopropyl)-p-diaminoxylene]
- potentiation of DFMO-induced cytostasis in the absence of exogenous spermidine, CHO-MG (CHO-MG cells): not in the polyamine transport mutant
- plasma half-life [1]: > 6 h
- plasma concentration after gavage ([1]; after 1 h, n=5): 450 ± 71 nM
- adverse effect on animal behavior, body weight, body features and gross anatomy of kidneys, liver or spleen (mice; gavage, up to 5.0 g/kg body weight): No external sign of sign of adverse effect
- LD50 (mice; oral gavage with solid BNSD-X pellets): > 5 g/body weight
